Experimental data from patent US12071404B2, “Aza (indole)-, benzothiophene-, and benzofuran-3-sulfonamides” (UCB Pharma GmbH, priority 2016, dated 2024).

Experiments:
GPR17 [1] = molecular target: T1, GPR17 (Homo sapiens, UniProt Q13304); assay: cAMP accumulation functional assay (HTRF, Schild analysis); format: cell-based; design: host or cells: Flp-In T-REx CHO; conditions: CHO hGPR17 cells, Schild analysis vs MDL29,951, 5 μM forskolin, read-out: cAMP assay pA2 (converted)
Experimental: Flp-In T-REx CHO cells stably expressing human GPR17 receptor (CHO hGPR17) from Evi Kostenis' lab (Bonn University, Germany) were cultured at 37° C. in a humidified atmosphere of 5% CO2. Cells were grown in DMEM with Nutrient Mixture F-12 supplemented with hygromycin B (500 μg/mL) and blasticidin (30 μg/mL). Expression from the Flp-In locus was induced by treatment with doxycycline (1 μg/mL) for 16-20 h prior assays.
GPR17 activation can also recruit Gi-type G-protein signaling, resulting in a decrease of intracellular cyclic adenosine monophosphate (cAMP). Intracellular cAMP changes can be measured using the HTRF cAMP dynamic assay kit from CisBio (Codolet, France). Using homogenous time-resolved fluorescence technology (HTRF), the assay is based on competition between native cAMP produced by cells and cAMP labelled with the dye d2. The tracer binding was determined by an anti-cAMP antibody labeled with cryptate.
CHO hGPR17 were detached with PBS containing EDTA and dispatched in black 384-well plates with 5,000 cells per well. Cells were first incubated for 30 minutes at room temperature in HBSS Hepes (pH 7.4) containing vehicle or varying concentrations of test GPR17 antagonist/inverse agonist compounds. […] After 60 minutes incubation at room temperature, the reaction is terminated and the cells lysed by adding the d2 detection reagent and the cryptate reagent in 10 μL lysis buffer each according to manufacturer's instructions. After 60 minutes incubation, changes in cAMP concentrations are measured according to manufacturer's instructions using an Envision plate reader with laser excitation. All incubations were performed in duplicate. Data was analyzed using GraphPad Prism software using the 4-parameter logistic equation to measure MDL29,951 pEC50s in absence and presence of GPR17 antagonist/inverse agonist test compounds. Dose ratio (DR) were plotted against antagonist concentrations and Schild analysis provided estimated affinity pA2 of GPR17 antagonist/inverse agonist test compounds.
The activities of the Example compounds tested are depicted in the table below. The activity ranges A, B and C refer to pA2 values in the cAMP assay as follows: “A”: pA2<7.5, “B”: pA2 7.5<x≤8.5, “C”: pA2>8.5.

GPR17 [2] = molecular target: T1, GPR17; assay: Calcium mobilization functional assay (GPR17 Ca2+ assay); format: cell-based; design: host or cells: Flp-In T-REx CHO; conditions: CHO hGPR17 cells, inhibition of 50 nM MDL29,951, Calcium 5 dye, FLIPR; read-out: Ca2+ assay pIC50 (converted)
Outline: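 Flp-In T-REx CHO cells stably expressing human GPR17, doxycycline-induced (1 μg/mL, 16-20 h), loaded 60 min with Calcium 5 dye. Inhibition by varying test-compound concentrations of the 50 nM MDL29,951 agonist response was read by fluorescence over time at room temperature. pIC50 came from 4-parameter logistic fitting.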

T1 sequence (Q13304 whole entry): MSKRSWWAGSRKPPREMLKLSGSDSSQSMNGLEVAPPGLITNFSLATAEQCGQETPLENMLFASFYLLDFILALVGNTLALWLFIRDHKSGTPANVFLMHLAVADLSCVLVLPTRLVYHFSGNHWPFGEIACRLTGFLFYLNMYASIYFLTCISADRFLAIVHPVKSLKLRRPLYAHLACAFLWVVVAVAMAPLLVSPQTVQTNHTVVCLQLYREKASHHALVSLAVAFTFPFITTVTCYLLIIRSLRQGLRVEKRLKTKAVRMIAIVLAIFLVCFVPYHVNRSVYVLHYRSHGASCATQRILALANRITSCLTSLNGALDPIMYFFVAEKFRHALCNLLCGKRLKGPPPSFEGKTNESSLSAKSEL

SMILES | Kb (GPR17 [1]) | IC50 (GPR17 [2])
CS(=O)(=O)c1ccc2c(S(=O)(=O)Nc3cc4c(cc3F)OC(F)(F)O4)c[nH]c2c1 [Compound I-238, 6-(methylsulfonyl)-N-(2,2,6-trifluoro-1,3-benzodioxol-5-yl)-1H-indole-3-sulfonamide] | 3.16 to 31.6 nM | 3.16 to 31.6 nM
COc1cc(F)c(NS(=O)(=O)c2c[nH]c3cc(Cl)ccc23)cc1F [Compound I-298, 6-chloro-N-(2,5-difluoro-4-methoxyphenyl)-1H-indole-3-sulfonamide] | 3.16 to 31.6 nM | 3.16 to 31.6 nM
O=S(=O)(Nc1cc(F)c(OC(F)F)cc1F)c1c[nH]c2cc(Cl)ccc12 [Compound I-267, 6-chloro-N-[4-(difluoromethoxy)-2,5-difluorophenyl]-1H-indole-3-sulfonamide] | < 3.16 nM | < 3.16 nM
O=S(=O)(Nc1cc2c(cc1F)OC(F)(F)O2)c1c[nH]c2cc(Cl)ccc12 [Compound I-125, 6-chloro-N-(2,2,6-trifluoro-1,3-benzodioxol-5-yl)-1H-indole-3-sulfonamide] | 3.16 to 31.6 nM | 3.16 to 31.6 nM
COC/C=C/c1cc(F)c(NS(=O)(=O)c2c[nH]c3cc(Cl)ccc23)nc1F [Compound I-252, 6-chloro-N-{3,6-difluoro-5-[(1E)-3-methoxyprop-1-en-1-yl]pyridin-2-yl}-1H-indole-3-sulfonamide] | < 3.16 nM | < 3.16 nM
COc1cc(C(F)(F)F)cnc1NS(=O)(=O)c1c[nH]c2cc(Cl)ccc12 [Compound I-344, 6-chloro-N-[3-methoxy-5-(trifluoromethyl)pyridin-2-yl]-1H-indole-3-sulfonamide] | 3.16 to 31.6 nM | 3.16 to 31.6 nM
N#Cc1cc(F)c(NS(=O)(=O)c2c[nH]c3cc(Cl)ccc23)cc1F [Compound I-185, 6-chloro-N-(4-cyano-2,5-difluorophenyl)-1H-indole-3-sulfonamide] | < 3.16 nM | < 3.16 nM
COc1nc(NS(=O)(=O)c2c[nH]c3c(F)c(Cl)ccc23)c(F)cc1F [Compound I-358, 6-chloro-N-(3,5-difluoro-6-methoxypyridin-2-yl)-7-fluoro-1H-indole-3-sulfonamide] | 3.16 to 31.6 nM | 3.16 to 31.6 nM
COc1nc(NS(=O)(=O)c2c[nH]c3nc(Cl)ccc23)c(F)cc1Cl [Compound I-336, 6-chloro-N-(5-chloro-3-fluoro-6-methoxypyridin-2-yl)-1H-pyrrolo[2,3-b]pyridine-3-sulfonamide] | 3.16 to 31.6 nM | < 3.16 nM
COc1nc(NS(=O)(=O)c2c[nH]c3cc([N+](=O)[O-])ccc23)c(F)cc1CC#N [Compound I-351, N-[5-(cyanomethyl)-3-fluoro-6-methoxypyridin-2-yl]-6-nitro-1H-indole-3-sulfonamide] | 3.16 to 31.6 nM | 3.16 to 31.6 nM
COc1ccc2c(S(=O)(=O)Nc3ccc(C#N)cc3F)c[nH]c2c1 [Compound I-112, N-(4-cyano-2-fluorophenyl)-6-methoxy-1H-indole-3-sulfonamide] | 3.16 to 31.6 nM | 3.16 to 31.6 nM
COc1ccc2c(S(=O)(=O)Nc3ccc(Cl)cc3F)c[nH]c2c1 [Compound I-69, N-(4-chloro-2-fluorophenyl)-6-methoxy-1H-indole-3-sulfonamide] | > 31.6 nM | > 31.6 nM
O=C1OCc2ccc(NS(=O)(=O)c3c[nH]c4nc(Br)ccc34)cc21 [Compound I-92, 6-bromo-N-(3-oxo-1,3-dihydro-2-benzofuran-5-yl)-1H-pyrrolo[2,3-b]pyridine-3-sulfonamide] | > 31.6 nM | > 31.6 nM
COc1cc(C#N)ccc1NS(=O)(=O)c1c[nH]c2cc(Cl)ccc12 [Compound I-126, 6-chloro-N-(4-cyano-2-methoxyphenyl)-1H-indole-3-sulfonamide] | 3.16 to 31.6 nM | 3.16 to 31.6 nM
CS(=O)(=O)c1ccc2c(S(=O)(=O)Nc3ccc(I)cc3F)c[nH]c2c1 [Compound I-48, N-(2-fluoro-4-iodophenyl)-6-(methylsulfonyl)-1H-indole-3-sulfonamide] | 3.16 to 31.6 nM | 3.16 to 31.6 nM
N#Cc1ccc2c(S(=O)(=O)Nc3cc(F)c(Cl)cc3F)c[nH]c2c1 [Compound I-277, N-(4-chloro-2,5-difluorophenyl)-6-cyano-1H-indole-3-sulfonamide] | < 3.16 nM | 3.16 to 31.6 nM
COC/C=C/c1cc(F)c(NS(=O)(=O)c2c[nH]c3cc(Br)ccc23)nc1F [Compound I-325, 6-bromo-N-{3,6-difluoro-5-[(1E)-3-methoxyprop-1-en-1-yl]pyridin-2-yl}-1H-indole-3-sulfonamide] | < 3.16 nM | < 3.16 nM
O=S(=O)(Nc1cc(F)c(Cl)cc1F)c1c[nH]c2cc(Cl)ccc12 [Compound I-204, 6-chloro-N-(4-chloro-2,5-difluorophenyl)-1H-indole-3-sulfonamide] | < 3.16 nM | 3.16 to 31.6 nM
O=S(=O)(Nc1nc(F)c(Br)cc1F)c1c[nH]c2cc(Cl)ccc12 [Compound I-245, N-(5-bromo-3,6-difluoropyridin-2-yl)-6-chloro-1H-indole-3-sulfonamide] | < 3.16 nM | < 3.16 nM
O=S(=O)(Nc1cc(F)c(C(F)(F)F)cc1F)c1c[nH]c2nc(Cl)ccc12 [Compound I-303, 6-chloro-N-[2,5-difluoro-4-(trifluoromethyl)phenyl]-1H-pyrrolo[2,3-b]pyridine-3-sulfonamide] | < 3.16 nM | < 3.16 nM

More lines, now with the values ahead:

Kb (GPR17 [1]) | IC50 (GPR17 [2]) | SMILES
3.16 to 31.6 nM | 3.16 to 31.6 nM | O=S(=O)(Nc1cccc2nsnc12)c1c[nH]c2cc(F)ccc12 [Compound I-107, N-(2,1,3-benzothiadiazol-4-yl)-6-fluoro-1H-indole-3-sulfonamide]
3.16 to 31.6 nM | 3.16 to 31.6 nM | O=S(=O)(Nc1cccc2c1OC(F)(F)O2)c1c[nH]c2c1ccc1cccnc12 [Compound I-66, N-(2,2-difluoro-1,3-benzodioxol-4-yl)-1H-pyrrolo[3,2-h]quinoline-3-sulfonamide]
< 3.16 nM | 3.16 to 31.6 nM | N#CCc1ccc(NS(=O)(=O)c2c[nH]c3cc(Cl)ccc23)c(F)c1 [Compound I-206, 6-chloro-N-[4-(cyanomethyl)-2-fluorophenyl]-1H-indole-3-sulfonamide]
> 31.6 nM | > 31.6 nM | O=S(=O)(Nc1cc(F)ccc1F)c1c[nH]c2nc(Cl)ccc12 [Compound I-90, 6-chloro-N-(2,5-difluorophenyl)-1H-pyrrolo[2,3-b]pyridine-3-sulfonamide]
< 3.16 nM | < 3.16 nM | Cc1cc(F)c(NS(=O)(=O)c2c[nH]c3nc(Cl)ccc23)cc1F [Compound I-268, 6-chloro-N-(2,5-difluoro-4-methylphenyl)-1H-pyrrolo[2,3-b]pyridine-3-sulfonamide]
< 3.16 nM | < 3.16 nM | N#Cc1ccc(NS(=O)(=O)c2c[nH]c3c2ccc2ccccc23)c(F)c1 [Compound I-152, N-(4-cyano-2-fluorophenyl)-1H-benzo[g]indole-3-sulfonamide]
3.16 to 31.6 nM | 3.16 to 31.6 nM | O=S(=O)(Nc1cc(F)ccc1F)c1c[nH]c2nc(Br)ccc12 [Compound I-88, 6-bromo-N-(2,5-difluorophenyl)-1H-pyrrolo[2,3-b]pyridine-3-sulfonamide]
< 3.16 nM | < 3.16 nM | N#CCOc1cc(F)c(NS(=O)(=O)c2c[nH]c3c2ccc2cccnc23)cc1F [Compound I-360, N-[4-(cyanomethoxy)-2,5-difluorophenyl]-1H-pyrrolo[3,2-h]quinoline-3-sulfonamide]
3.16 to 31.6 nM | < 3.16 nM | O=S(=O)(Nc1cc2nsnc2cc1F)c1c[nH]c2c1ccc1ccccc12 [Compound I-160, N-(6-fluoro-2,1,3-benzothiadiazol-5-yl)-1H-benzo[g]indole-3-sulfonamide]
3.16 to 31.6 nM | 3.16 to 31.6 nM | N#Cc1ccc(NS(=O)(=O)c2c[nH]c3nc(Cl)ccc23)c(F)c1 [Compound I-108, 6-chloro-N-(4-cyano-2-fluorophenyl)-1H-pyrrolo[2,3-b]pyridine-3-sulfonamide]
< 3.16 nM | < 3.16 nM | N#Cc1ccc(NS(=O)(=O)c2c[nH]c3c(Br)c(Cl)ccc23)c(F)c1 [Compound I-341, 7-bromo-6-chloro-N-(4-cyano-2-fluorophenyl)-1H-indole-3-sulfonamide]
